According to article PMC7154053, “Chemical, Metabolic, and Cellular Characterization of a FtsZ Inhibitor Effective Against Burkholderia cenocepacia” (Frontiers in Microbiology, 2020):
≈ marks a conversion by molar mass, not a printed value. Where two headings read alike, the source gives them in different places.

Legend:
[1] = test system: B. cenocepacia FCF19; assay: MIC, 2-fold microdilution, resazurin method; format: cell-based, Burkholderia cenocepacia; settings: Burkholderia cenocepacia; clinical isolate FCF19
Method: (§1) Burkholderia cenocepacia strains, Escherichia coli ATCC 25922, Pseudomonas aeruginosa PAO1, and Staphylococcus aureus ATCC 25923 were grown in Luria-Bertani (LB) medium (Difco), if not differently specified, with shaking at 200 rpm, or on LB agar, at 37°C.
(§2) The microtiter plates were incubated at 37°C for 48 (for B. cenocepacia) or 24 h (for all the other strains) and growth was determined by the resazurin method (Martin et al., [2006]). A solution of resazurin sodium salt (Sigma Aldrich) was prepared at 0.01% in distilled water and filter-sterilized. Thirty microliter of resazurin solution were added to each well after 1 or 2 days of incubation at 37°C, and the microtiters were re-incubated at the same temperature for 4 h. The MIC was defined as the lowest concentration of the drug that prevented a change in color from blue to pink, which indicates bacterial growth.
(§3) Three independent biological replicates were used for each MIC determination.

[2] = test system: B. cenocepacia FCF22; assay: MIC, 2-fold microdilution, resazurin method; format: cell-based, Burkholderia cenocepacia; settings: Burkholderia cenocepacia; clinical isolate FCF22
Method: as §1, §2, §3

[3] = test system: B. cenocepacia J2315; assay: MIC, 2-fold microdilution, resazurin method; format: cell-based, Burkholderia cenocepacia; settings: Burkholderia cenocepacia
Method: as §1, §2, §3

[4] = test system: E. coli ATCC 25922; assay: MIC, 2-fold microdilution, resazurin method; format: cell-based; settings: Escherichia coli, ATCC25922
Method: as §1, §2, §3

[5] = test system: P. aeruginosa PAO1; assay: MIC, 2-fold microdilution, resazurin method; format: cell-based; settings: Pseudomonas aeruginosa, PAO1
Method: as §1, §2, §3

[6] = test system: S. aureus ATCC 25923; assay: MIC, 2-fold microdilution, resazurin method; format: cell-based, Staphylococcus aureus; settings: Staphylococcus aureus, ATCC25923
Method: as §1, §2, §3

[7] = biological target: Burkholderia cenocepacia purified FtsZ protein (Burkholderia cenocepacia, UniProt B4E5Y7); assay: biochemical; format: biochemical; settings: Yes/No
Sequence of Burkholderia cenocepacia purified FtsZ protein (B4E5Y7 entry or part of it): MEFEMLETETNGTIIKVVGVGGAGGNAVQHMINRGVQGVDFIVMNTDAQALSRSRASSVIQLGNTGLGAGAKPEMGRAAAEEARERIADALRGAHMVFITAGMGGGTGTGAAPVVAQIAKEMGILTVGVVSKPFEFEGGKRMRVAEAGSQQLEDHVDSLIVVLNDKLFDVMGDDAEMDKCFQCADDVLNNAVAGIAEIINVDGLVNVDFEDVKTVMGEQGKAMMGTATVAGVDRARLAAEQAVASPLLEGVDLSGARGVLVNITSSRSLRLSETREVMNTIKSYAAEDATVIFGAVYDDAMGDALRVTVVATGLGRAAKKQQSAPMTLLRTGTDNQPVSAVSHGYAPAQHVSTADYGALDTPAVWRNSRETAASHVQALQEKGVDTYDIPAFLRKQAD
Method: (§4) All the recombinant FtsZ proteins were expressed at 20°C overnight in E. coli BL21(DE3) cells, upon induction with 0.5 mM IPTG, and purified using the same protocol assessed for the wild-type B. cenocepacia FtsZ (Hogan et al., [2018]).
(§5) GTPase enzyme activity was determined using a pyruvate kinase/L-lactic dehydrogenase (PK/LDH) spectrophotometric coupled assay (Ingerman and Nunnari, [2005]). The assays were performed at 30°C, in a reaction mixture containing […] Hepes pH 7.5, 5 mM MgCl2, 5 mM KCl, 10 U PK/LDH, 0.25 mM NADH, 0.25 mM PEP, and 5–10 μM FtsZ, and initiated by the addition of 0.5 mM GTP. Alternatively, GTPase activity was determined by measuring the release of phosphate using the malachite green assay (Baykov et al., [1988]).
(1) A[I]=A[0]×(1-[I]/[I]+IC50)
where A[I] is the enzyme activity at inhibitor concentration [I] and A[0] is the enzyme activity without inhibitor.

[8] = biological target: T1, PAO1-FtsZ (Pseudomonas aeruginosa, UniProt P47204); assay: FtsZ GTPase activity assay (kinetics and inhibition); format: biochemical; settings: read-out: IC50 toward PAO1-FtsZ
T1 construct: His-tag of pET-28a followed by PreScission site (His-tag inferred from the vector; the site is encoded in the forward primer) (N); made in house; host or cells: E. coli BL21(DE3)
T1 sequence (P47204 2-316): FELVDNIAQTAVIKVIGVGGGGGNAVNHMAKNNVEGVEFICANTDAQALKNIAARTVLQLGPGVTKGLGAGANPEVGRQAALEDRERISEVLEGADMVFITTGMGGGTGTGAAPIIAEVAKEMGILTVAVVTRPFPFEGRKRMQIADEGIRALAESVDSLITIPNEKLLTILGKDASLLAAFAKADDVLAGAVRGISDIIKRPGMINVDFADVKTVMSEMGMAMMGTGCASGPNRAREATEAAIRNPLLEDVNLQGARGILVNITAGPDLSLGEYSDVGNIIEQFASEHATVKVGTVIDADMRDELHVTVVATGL
Method: The gene ftsZ (BCAL3457) was amplified from B. cenocepacia FCF19 using the primers pet28presFtsZfor (5′-[…]-3′) and pet28ftsZrev (5′-[…]-3′). The gene ftsZ of P. aeruginosa was amplified from the genomic DNA using the primers ftsZPAOfor28a (5′-[…] 3′) and ftsZPAOrev28a (5′-[…]-3′). The PCR products were cloned into the pET-28a vector (Novagen) using the In-Fusion HD Cloning kit (TaKaRa), according to the manufacturer's instructions.
as §4, §5
Steady-state kinetic analysis was performed by assaying the activity at different GTP concentrations and parameters determined by fitting the data to the Michaelis-Menten equation using Origin 8 software. […]

[9] = test system: P. aeruginosa; assay: Checkerboard assay with efflux pump inhibitor PaβN MC-207.110; format: cell-based, Pseudomonas aeruginosa
Method: as §2, with “growth. […] Three independent biological replicates were used for each MIC determination.” for “growth.”

[10] = test system: B. cenocepacia; assay: Resazurin-based assay of BcNR reaction mixtures; format: cell-based, Burkholderia cenocepacia; settings: BcNR reactions with 1 mM C109, with or without NADPH; C109 result: in the absence of NADPH
Source text: To assess whether the resulting BcNR reduction product could inhibit B. cenocepacia growth, we carried out a resazurin-based assay.

[11] = test system: CF bronchial epithelial (CFBE41o-) cell line; parameters: method as in Hogan et al., 2018; Costabile et al., 2020; settings: CFBE41o- cells; ref Hogan et al., 2018; Costabile et al., 2020; cited from earlier work

In the case of `COC(=O)CSc1ccc2nsnc2c1[N+](=O)[O-]` [C109, methyl [(4-nitro-2,1,3-benzothiadiazol-5-yl)thio]acetate], the MIC [1] is reported as 128 µg/mL (≈ 449 µM), the MIC [2] is reported as 256 µg/mL (≈ 897 µM) and the MIC ([3]; J2315, read-out: MIC (µg/ml) B. cenocepacia J2315) is reported as 8 µg/mL (≈ 28 µM). For the same compound, the MIC ([3]; J2315, LB, 48 h, read-out: MIC B. cenocepacia J2315) was 8 µg/mL (≈ 28 µM), the MIC ([4]; LB, 24 h, read-out: MIC E. coli 25922) was 8 µg/mL (≈ 28 µM) and the MIC ([4]; Supplementary Table 1, read-out: MIC (µg/ml) E. coli 25922) was 8 µg/mL (≈ 28 µM). For the same compound, the MIC ([5]; LB, 24 h, read-out: MIC P. aeruginosa PAO1) was 128 µg/mL (≈ 449 µM), the MIC ([5]; Supplementary Table 1, read-out: MIC (µg/ml) P. aeruginosa PAO1) was 128 µg/mL (≈ 449 µM) and the MIC ([6]; LB, 24 h, read-out: MIC S. aureus 25923) was 4 µg/mL (≈ 14 µM). For the same compound, the MIC ([6]; Supplementary Table 1, read-out: MIC (µg/ml) S. aureus 25923) was 4 µg/mL (≈ 14 µM), the “Inhibition of Bc FtsZ At 100 μM” value ([7]; 100 μM compound) was “Yes” and the “Inhibits B. cenocepacia FtsZ GTPase at 100µM?” value ([7]; 100 µM, Supplementary Table 1) was “Yes”. The IC50 [8] was 3.5 ± 1.9 µM, the MIC ([9]; Pseudomonas aeruginosa, read-out: MIC in the presence of MC-207.110, P. aeruginosa) was 1 µg/mL and the “effect of combination with MC-207.110” value ([9]; checkerboard, P. aeruginosa) was “synergistic effect”. For the same compound, the “activity against B. cenocepacia growth” value [10] was “still active” and the “toxic concentration at 50% (TC50)” value [11] was “about 75 μM”.
